Source: ChEMBL document CHEMBL2396560, “Discovery of (R)-4-cyclopropyl-7,8-difluoro-5-(4-(trifluoromethyl)phenylsulfonyl)-4,5-dihydro-1H-pyrazolo[4,3-c]quinoline (ELND006) and (R)-4-cyclopropyl-8-fluoro-5-(6-(trifluoromethyl)pyridin-3-ylsulfonyl)-4,5-dihydro-2H-pyrazolo[4,3-c]quinoline (ELND007): metabolically stable γ-secretase …” (J Med Chem, 2013)

Legend:
Mus musculus [1] = test: Reduction in amyloid beta (x to 40) in FVB mouse cortex at 10 mg/kg, po administered as single dose measured at 3 hrs; assay type: functional; parameters: scale not given: the % may be the effect or the level left
Mus musculus [2] = test: Reduction in amyloid beta (x to 40) in FVB mouse cortex at 30 mg/kg, po administered as single dose measured at 3 hrs; assay type: functional; parameters: scale not given: the % may be the effect or the level left
Mus musculus [3] = test: Reduction in amyloid beta (x to 40) in FVB mouse cortex at 3 mg/kg, po administered as single dose measured at 3 hrs; assay type: functional; parameters: scale not given: the % may be the effect or the level left
Liver microsomes [4] = test: Glucuronidation metabolism in human liver microsomes assessed as compound remaining; assay type: ADME, Microsome
Liver microsomes [5] = test: Glucuronidation metabolism in rat liver microsomes assessed as compound remaining; assay type: ADME, Microsome
Liver [6] = test: Glucuronidation metabolism in dog liver microsomes assessed as compound remaining; assay type: ADME, Canis lupus familiaris, Microsome
Liver [7] = test: Glucuronidation metabolism in mouse liver microsomes assessed as compound remaining; assay type: ADME, Microsome
Liver microsomes [8] = test: Oxidative metabolism in human liver microsomes assessed as compound remaining; assay type: ADME, Microsome
Liver microsomes [9] = test: Oxidative metabolism in rat liver microsomes assessed as compound remaining; assay type: ADME, Microsome
Liver [10] = test: Oxidative metabolism in dog liver microsomes assessed as compound remaining; assay type: ADME, Canis lupus familiaris, Microsome
Liver [11] = test: Oxidative metabolism in mouse liver microsomes assessed as compound remaining; assay type: ADME, Microsome
CHO [12] = test: Selctivity ratio of ED50 for gamma-secretase in CHO cells assessed expressing NotchdeltaE assessed as inhibition of notch cleavage to ED50 for gamma-secretase in CHO cells assessed expressing APPSw assessed as inhibition of amyloid beta(1 to x) secretion; assay type: cell-based; conditions: Cricetulus griseus
CHO [13] = test: Inhibition of gamma-secretase in CHO cells assessed expressing NotchdeltaE assessed as inhibition of notch cleavage after overnight incubation by luciferase reporter gene assay; assay type: cell-based; conditions: Cricetulus griseus
CHO [14] = test: Inhibition of gamma-secretase in CHO cells assessed expressing APPSw assessed as inhibition of amyloid beta(1 to x) secretion after overnight incubation by ELISA; assay type: cell-based; conditions: Cricetulus griseus
[15] = biological target: Gamma-secretase (Homo sapiens) (UniProt Q96BI3+Q9NZ42+Q8WW43+P49768+Q92542+P49810); test: Selctivity ratio of IC50 for partially purified human gamma-secretase-mediated cleavage of notch fusion protein to IC50 for partially purified human gamma-secretase-mediated cleavage of MBP-APPc125Sw fusion protein; assay type: protein-complex assay
Gamma-secretase [16] = test: Inhibition of partially purified human gamma-secretase-mediated cleavage of notch fusion protein measured after overnight incubation by ELISA; assay type: protein-complex assay
Gamma-secretase [17] = test: Inhibition of partially purified human gamma-secretase-mediated cleavage of MBP-APPc125Sw fusion protein measured after overnight incubation by ELISA; assay type: protein-complex assay

SMILES	Activity (Mus musculus [1])	Activity (Mus musculus [2])	Activity (Mus musculus [3])	Stability (Liver microsomes [4])	Stability (Liver microsomes [5])	Stability (Liver [6])	Stability (Liver [7])	Stability (Liver microsomes [8])	Stability (Liver microsomes [9])	Stability (Liver [10])	Stability (Liver [11])	Ratio ED50 (CHO [12])	ED50 (CHO [13])	ED50 (CHO [14])	Ratio IC50 [15]	IC50 (Gamma-secretase [16])	IC50 (Gamma-secretase [17])
O=S(=O)(N[C@H](CO)C(C(F)(F)F)C(F)(F)F)c1ccc(Cl)s1 [BEGACESTAT]	20%	33%	18%	75%	0%	0%	36%	78%	54%	78%	89%	45	350 nM	7.8 nM	6.9	11 nM	1.6 nM
CC[C@H]1Cc2n[nH]cc2[C@@H](CC)N1S(=O)(=O)c1ccc(Cl)cc1 [ENT A]	–	–	–	1%	1%	38%	11%	1%	1%	0%	1%	95	71 nM	0.75 nM	13	4.7 nM	0.37 nM
CC(C)[C@@H]1c2c[nH]nc2-c2cc(F)c(F)cc2N1S(=O)(=O)c1ccc(C(F)(F)F)cc1	–	–	–	76%	93%	87%	95%	22%	12%	17%	15%	73	410 nM	5.6 nM	12	17 nM	1.4 nM
O=S(=O)(c1ccc(Cl)cc1)N1Cc2c[nH]nc2-c2cc(F)ccc21	–	–	–	69%	91%	86%	80%	0%	0%	0%	5%	75	7400 nM	99 nM	7.3	160 nM	22 nM
O=S(=O)(c1ccc(Cl)cc1)N1Cc2c[nH]nc2-c2ccc(F)cc21	–	–	–	3%	99%	83%	77%	1%	0%	0%	22%	69	11000 nM	160 nM	5.8	220 nM	38 nM
C[C@@H]1c2c[nH]nc2-c2cc(F)ccc2N1S(=O)(=O)c1ccc(Cl)cc1	–	–	–	–	92%	97%	91%	1%	2%	40%	7%	63	170 nM	2.7 nM	23	14 nM	–
O=S(=O)(c1ccc(F)cc1)N1c2cc(F)c(F)cc2-c2n[nH]cc2[C@H]1C1CC1	–	–	–	75%	91%	89%	93%	24%	51%	47%	52%	65	85 nM	1.3 nM	29	9.6 nM	0.33 nM
C[C@@H]1c2c[nH]nc2-c2cc(F)c(F)cc2N1S(=O)(=O)c1ccc(C(F)(F)F)cc1	–	–	–	80%	86%	83%	93%	28%	36%	54%	20%	68	890 nM	13 nM	20	42 nM	2.1 nM
O=S(=O)(c1ccc(Cl)cc1)N1Cc2c[nH]nc2-c2ccccc21	–	–	–	11%	93%	89%	81%	0%	0%	0%	3%	94	9400 nM	100 nM	–	250 nM	327 nM
O=S(=O)(c1ccc(Cl)cc1)N1[C@H]2CCC[C@@H]1c1cn[nH]c1C2	–	–	–	0%	0%	100%	4%	50%	5%	2%	15%	–	690 nM	5.2 nM	–	–	–
O=S(=O)(c1ccc(C(F)(F)F)cc1)N1c2ccccc2-c2n[nH]cc2[C@H]1C1CC1	–	–	–	99%	87%	99%	98%	36%	40%	46%	51%	63	26 nM	0.41 nM	15	2.7 nM	0.18 nM
O=S(=O)(c1ccc(C(F)(F)F)cc1)N1c2ccc(F)cc2-c2n[nH]cc2[C@H]1C1CC1	–	–	–	82%	91%	88%	97%	84%	59%	80%	72%	67	53 nM	0.79 nM	12	1.7 nM	0.14 nM
C[C@@H]1c2c[nH]nc2-c2cc(F)ccc2N1S(=O)(=O)c1ccc(F)cc1	–	–	–	70%	82%	84%	84%	17%	21%	49%	22%	54	410 nM	7.8 nM	33	43 nM	1.3 nM
